{"source": "patent US5041426A", "about": "“Immune system enhancing 3-β-d-ribofuranosylthiazolo[4,5-d]pyridimine nucleosides and nucleotides” (priority 1988, dated 1991)", "key": {"K562 tumor cells": {"system": "K562 tumor cells", "test": "In vitro augmentation of human natural killer cell activity (PBMNC, 51Cr release)", "type": "cell-based", "details": "Table 22", "protocol": "The natural killer cell activity in human cells was also measured. In conducting these tests peripheral blood mononuculear cells (PBMNC) were isolated on Ficoll-Hypaque gradient, washed three times in Hanks and re-suspended in RPMI-1640 containing 10% human AB serum as described in Rosenberg, S. A.: Journal American Medical Association, 256:3117, 1986 and the above referred to reference to Djeu, et al. Peripheral blood mononuclear cells (PBMNC) from eleven different donors were treated with compound 7 as described in Djeu, et al. as well as Sharma, B., Odom, L. F.: Cancer Immunol. Immunother. 7.93, 1979, and Sharma, B., Odom, L. F.: Cancer Research 44:3258, 1984.\nThe PBMNC cells were incubated with compound 7 at 37° C. for 20 to 68 hours in a 5% CO2 humid atmosphere and after incubation the cytotoxicity was determined against K562 tumor cells.\n^a Peripheral blood mononuclear cells were treated with 0.05 - 0.4 mM\nconcentration of compound 7 in RPM11640 containing 10% human AB serum for\n20 to 68 hours. After the treatment, effector cells were tested against\nK562 target cells in 4 hour ^51 Cr release assay as described in\nSharma et al. above. The data shown here represent the maximum response.\nK562 target cells in 4 hour ^51 Cr release assay as previously\ndescribed above in Sharma et al. The data represent the maximum response.\nOther Nucleosides and Nucleotides of the invention were tested for their activity in human natural killer cells […] as per example 33 above."}, "YAC-1 cells [1]": {"system": "YAC-1 cells", "test": "In vitro potentiation of murine natural killer cell activity (mouse spleen cells, 51Cr release)", "type": "cell-based", "protocol": "After incubation the cytotoxicity of the treated and untreated cells was determined against YAC-1 cells.\n^a Spleen cells from mice were treated with 0.05 mM concentration of\namino acids and 5 × 10^-5 M Mercaptoethanol. The effector cells\nwere then tested for their cytotoxic activity against YAC1 target cells i\n4 hr ^51 Cr release assay.\n^a Spleen cells from mice were incubated in the absence and presence\nof various compounds. After incubation, cells were suspended in complete\nmedium and then their cytotoxic activity was determined against YAC1\ntarget cells as described in the text"}, "YAC-1 cells [2]": {"system": "YAC-1 cells", "test": "In vitro potentiation of murine natural killer cell activity (mouse spleen cells, 51Cr release)", "type": "cell-based", "details": "Table 21; 0.5 mM"}, "San Angelo Virus [3]": {"system": "San Angelo Virus", "type": "in vivo, mouse", "details": "saline at -24 h, of mice that died"}, "Banzi Virus": {"system": "Banzi Virus", "type": "in vivo, mouse", "details": "placebo at -24 h, of mice that died"}, "San Angelo Virus [4]": {"system": "San Angelo Virus", "type": "in vivo, mouse", "details": "200 mg/kg/day; half-daily doses twice a day for 7 days; Time (21 days)"}, "Influenza B Virus": {"system": "Influenza B Virus", "test": "Antiviral activity against Influenza B virus infection in mice", "type": "in vivo, mouse", "protocol": "Compound 7 was tested therapeutically against Influenza B Virus Infection in Mice. In addition to a saline control Ribavirin, a known antiviral, was utilized for test purposes.\nhours previrus inoculation.\n^c p < .001 twotailed ttest."}}, "note": "“And” between values parts separate entries of the source, which are not always exact repeats. Equal values may be shown once. Read-outs that look alike come from different tables or passages of the source.", "data": [{"molecule": "O=c1[nH]c(=O)c2sc(=O)n([C@@H]3O[C@H](CO)[C@@H](O)[C@H]3O)c2[nH]1", "note": "[Compound 8, 3-β-D-Ribofuranosylthiazolo[4,5-d]pyrimidine-2,5,7(4H,6H)-trione]", "values": [{"measurement": "% Natural Killer Cell Cytotoxicity", "setting": "K562 tumor cells; 0.2 mM", "value": 5, "unit": "%"}]}, {"molecule": "O=C(OC[C@H]1O[C@@H](n2c(=O)sc3c(=O)[nH]cnc32)[C@H](OC(=O)c2ccccc2)[C@@H]1OC(=O)c1ccccc1)c1ccccc1", "note": "[Compound 9, 3-(2,3,5-Tri-O-benzoyl-β-D-Ribofuranosyl)thiazolo[4,5-d] pyrimidine-2,7(6H)-dione]", "values": [{"measurement": "% Natural Killer Cell Cytotoxicity", "setting": "K562 tumor cells; 0.05 mM", "value": 6, "unit": "%"}, {"measurement": "% Natural Killer Cell Cytotoxicity", "setting": "K562 tumor cells; 0.2 mM", "value": 43, "unit": "%"}, {"measurement": "% Natural Killer Cell Cytotoxicity", "setting": "YAC-1 cells [1]; Table 21, 0.05 mM", "value": "3% and 2% and 0.31%"}, {"measurement": "% Natural Killer Cell Cytotoxicity", "setting": "YAC-1 cells [2]", "value": "13% and 6.5%"}]}, {"molecule": "Nc1nc2c(sc(=O)n2[C@@H]2O[C@@H]3COP(=O)(O)O[C@H]3[C@H]2O)c(=O)[nH]1", "note": "[Compound 12]", "values": [{"measurement": "% Natural Killer Cell Cytotoxicity", "setting": "K562 tumor cells; 0.2 mM", "value": 43, "unit": "%"}, {"measurement": "% Natural Killer Cell Cytotoxicity", "setting": "K562 tumor cells; 0.4 mM, Monophosphate Ammonium Salt", "value": "39% and 22%"}]}, {"molecule": "Nc1nc2c(sc(=S)n2[C@@H]2O[C@H](CO)[C@@H](O)[C@H]2O)c(=O)[nH]1", "note": "[Compound 16, 5-Amino-2-thioxo-3-β -D-ribofuranosylthiazolo[4,5-d]pyrimidin-7(6H)-one]", "values": [{"measurement": "% Natural Killer Cell Cytotoxicity", "setting": "YAC-1 cells [2]", "value": 38, "unit": "%"}]}, {"molecule": "Nc1nc2c(sc(=O)n2[C@@H]2O[C@H](CO)[C@@H](O)[C@H]2O)c(=S)[nH]1", "note": "[Compound 19, 5-Amino-7(6H)-thioxo-3-β-D-ribofuranoxylthiazolo[4,5-d]pyrimidin-2-one]", "values": [{"measurement": "% Natural Killer Cell Cytotoxicity", "setting": "K562 tumor cells; 0.2 mM", "value": 7, "unit": "%"}]}, {"molecule": "NC(=O)c1ncn([C@@H]2O[C@H](CO)[C@@H](O)[C@H]2O)n1", "note": "[Ribavirin]", "values": [{"measurement": "Mean Survival Time", "setting": "San Angelo Virus [3]; Ribavirin 25 mg/kg/day days 0-6", "value": "8.1 ± 0.7", "unit": "days"}, {"measurement": "Mean Survival Time", "setting": "San Angelo Virus [3]; Ribavirin 50 mg/kg/day days 0-6", "value": "9.0 ± 1.2", "unit": "days"}, {"measurement": "Mean Survival Time", "setting": "Banzi Virus; Ribavirin 100 mg/kg days 0-6", "value": "8.5 ± 1.0", "unit": "days"}, {"measurement": "Mean Survival Time", "setting": "Banzi Virus; Ribavirin 200 mg/kg days 0-6", "value": "9.1 ± 0.8", "unit": "days"}, {"measurement": "Mean Survival Time", "setting": "San Angelo Virus [4]", "value": "12.3 ± 2.9", "unit": "days"}, {"measurement": "Mean Survival Time", "setting": "Influenza B Virus; 100 mg/kg/day, half-daily doses twice a day for 7 days", "value": "8.0 ± 0.0", "unit": "days"}, {"measurement": "efficacy against influenza B (in words)", "setting": "Influenza B Virus; Table 12", "value": "significant antiviral activity"}]}, {"molecule": "Poly I:C [reference compound]", "values": [{"measurement": "% Natural Killer Cell Cytotoxicity", "setting": "YAC-1 cells [1]; C57BL/6J spleen cells, treatment 0 h, compound 7 at 0.05 mM", "value": 18, "unit": "%"}, {"measurement": "% Natural Killer Cell Cytotoxicity", "setting": "YAC-1 cells [1]; C57BL/6J spleen cells, treatment 0 h, compound 7 at 0.05 mM, listed as Poly I:", "value": 22, "unit": "%"}, {"measurement": "% Natural Killer Cell Cytotoxicity", "setting": "YAC-1 cells [1]; C57BL/6J spleen cells, treatment 20 h, compound 7 at 0.05 mM", "value": 13, "unit": "%"}, {"measurement": "% Natural Killer Cell Cytotoxicity", "setting": "YAC-1 cells [1]; C57BL/6J spleen cells, treatment 20 h, compound 7 at 0.05 mM, listed as Poly I:", "value": 6, "unit": "%"}, {"measurement": "% Natural Killer Cell Cytotoxicity", "setting": "YAC-1 cells [1]; C57BL/6J spleen cells, treatment 44 h, compound 7 at 0.05 mM", "value": 14, "unit": "%"}, {"measurement": "% Natural Killer Cell Cytotoxicity", "setting": "YAC-1 cells [1]; C57BL/6J spleen cells, treatment 44 h, compound 7 at 0.05 mM, listed as Poly I:", "value": 13, "unit": "%"}, {"measurement": "% Natural Killer Cell Cytotoxicity", "setting": "YAC-1 cells [1]; CBA/CaJ spleen cells, treatment 0 h, compound 7 at 0.05 mM", "value": "14.5% and 22%"}, {"measurement": "% Natural Killer Cell Cytotoxicity", "setting": "YAC-1 cells [1]; CBA/CaJ spleen cells, treatment 20 h, compound 7 at 0.05 mM", "value": "18% and 31%"}, {"measurement": "% Natural Killer Cell Cytotoxicity", "setting": "YAC-1 cells [1]; CBA/CaJ spleen cells, treatment 44 h, compound 7 at 0.05 mM", "value": "19% and 9%"}]}]}
